Reference: patent publication US9980928B2, “Hydroxy aliphatic substituted phenyl aminoalkyl ether derivatives” (PROUS INSTITUTE FOR BIOMEDICAL RESEARCH, S.A., priority 2012, dated 2018)
“Also recorded” adds a separate entry of the source.

Columns and labels:
[1] = system: p-PLCγ1; experiment: Western blot of p-PLCγ1 in mouse brain after i.p. administration; format: in vivo, mice; conditions: 30 mg/kg i.p., 1 hour after administration
Experimental: (§1) Acute biochemical neuronal changes in neurotrophin and synaptic plasticity signaling after the administration of the compounds to be tested may be studied by Western blot assessment of ERK, Akt, phospholipase C (PLC), Trk-B, […] and CAMK II phosphorylation assays in the hippocampus, striatum and cortex at 1 hour post-administration.
(§2) Two groups of animals were used: C57BL control mice and mice treated by i.p. administration of a dose of 30 mg/kg of the compound to be tested diluted in saline solution or control saline (n=6 per group).
(§3) Animals were sacrificed by cervical dislocation at the corresponding time and different brain regions were dissected (frontal cortex, striatum, hippocampus, cerebellum) after […] of having administered the compounds. […] The supernatants were collected and the protein concentration was measured using the Dc protein assay kit (Bio-Rad, Hercules, Calif., USA) read in a 96-well plate. […]
(§4) After primary antibody incubation, membranes were washed with TBS-T and incubated for 1 hour at room temperature with the appropriate horseradish peroxidase-conjugated secondary antibody (1:2000; Promega, Madison, Wis., USA), and the reaction was finally visualized with the Western Blotting Luminol Reagent (Santa Cruz Biotechnology, Santa Cruz, Calif., USA). Western blot replicates were scanned and quantified using a computer-assisted densitometric analysis.

[2] = system: mice; experiment: Forced swimming test in mice; format: in vivo
Experimental: The antidepressant activity was determined using the forced swimming test described in Porsolt, R.-D. et al. Arch Int Pharmacodyn 1977, 229(2): 327-36.
Reduction in the duration of immobility by 50% or more relative to the control group indicates possible antidepressant activity. Also, one-way ANOVA followed by Dunnett's test was applied to compare the test compound-treated and vehicle control groups. Significance was considered to be P<0.05.

[3] = system: p-Akt; experiment: Western blot of p-Akt in mouse brain after i.p. administration; format: in vivo, mice; conditions: 30 mg/kg i.p., hippocampus, 1 hour after administration; hydrochloride
Experimental: as §1, §2, §3, §4

[4] = system: mice; experiment: Tail suspension assay in mice; format: in vivo; conditions: 90 mg/kg, route not given
Experimental: Another method of measuring antidepressant activity that may be used to evaluate the compounds of the present invention is the tail suspension test in mice described in Vogel, H. G. and Vogel, W. H. (Eds.) Drug Discovery and Evaluation, Springer-Verlag Berlin Heidelberg, 1997) pp. 304-3059). The mouse tail suspension assay was conducted 60 minutes after dosing. The duration of immobility was recorded for a period of 5 minutes after tail suspension was initiated, and reduction in the duration of immobility by ≥50% relative to the control group indicated antidepressant activity. Statistical analysis was also performed by using one-way ANOVA followed by Dunnett's test to compare the data of test compound-treated and vehicle control groups. Significance was considered to be P<0.05.

[5] = biological target: T1, Human dopamine transporters (Homo sapiens, UniProt Q01959); experiment: Binding to the dopamine transporter ([125I]-RTI-55); conditions: 10 μM; read-out: inhibitory effect on [125I]-RTI-55 binding
T1 construct: expressed in transfected cells; host or cells: CHO-K1 cells (membranes)
Experimental: Human dopamine transporters expressed in CHO—K1 cells are used in modified Tris-HCl buffer at pH 7.4. […] Non-specific binding is estimated in the presence of […] nomifensine.

[6] = system: J20 mouse model and wild-type mice; experiment: Morris water maze test in old wild-type and J20 mice; format: in vivo; conditions: 30 mg/kg i.p.
Description: Familial Alzheimer's disease (AD) is associated with mutations that lead to the production of the β-amyloid 42 (Aβ42) peptide, a constituent of the characteristic amyloid plaques diagnostic of AD. These mutations occur at the proteolytic cleavage sites in the gene encoding the amyloid precursor protein (APP), and in the genes for presenilins 1 and 2 (PSEN1 and PSEN2), enzymes involved in APP cleavage. […] The J20 mouse model is a suitable experimental animal model for testing the activity of drugs on cognitive performance because these mice show robust impairment in spatial learning and spatial reference memory (Karl, T. et al. Behav Brain Res 2012, 228(2): 392-97; Garcia-Barroso, C. et al. Neuropharmacology 2013, 64: 114-23). The effects of Example 2 on spatial memory and learning in the J20 mouse model using the Morris water maze test (Vorhees, Ch. V. and Williams, M. T. Nat Protoc 2006, 1(2): 848-58) were investigated in our laboratory.
The Morris water maze test was applied to 45 old male mice. Twenty wild-type and 25 J20 mice (n=10-11 for each group of treatment/genotype; 10-14 months of age) were treated with vehicle or Example 2 at 30 mg/kg i.p. Percent times in quadrants, escape latencies, distance to goal and other parameters were recorded and compared between groups to assess the compound's activity.

T1 sequence (Q01959 whole entry): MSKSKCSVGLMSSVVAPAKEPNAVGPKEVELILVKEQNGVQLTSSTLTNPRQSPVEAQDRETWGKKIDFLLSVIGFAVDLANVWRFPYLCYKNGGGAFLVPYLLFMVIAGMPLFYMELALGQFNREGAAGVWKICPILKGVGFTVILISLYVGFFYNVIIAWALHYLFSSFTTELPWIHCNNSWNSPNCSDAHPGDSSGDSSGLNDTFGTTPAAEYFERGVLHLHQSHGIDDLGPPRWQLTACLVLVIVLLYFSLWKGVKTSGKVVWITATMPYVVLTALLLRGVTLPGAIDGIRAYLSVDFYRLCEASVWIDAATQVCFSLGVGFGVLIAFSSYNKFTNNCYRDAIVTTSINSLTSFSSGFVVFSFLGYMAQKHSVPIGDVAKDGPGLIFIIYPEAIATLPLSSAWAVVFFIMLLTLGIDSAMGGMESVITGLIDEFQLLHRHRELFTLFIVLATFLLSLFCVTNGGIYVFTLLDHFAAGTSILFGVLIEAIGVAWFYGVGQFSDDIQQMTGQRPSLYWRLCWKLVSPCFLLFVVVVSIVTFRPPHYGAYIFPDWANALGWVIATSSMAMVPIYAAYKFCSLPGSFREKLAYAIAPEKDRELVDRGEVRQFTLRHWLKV

CNCCC(Oc1ccc(CCO)cc1)c1ccccc1.Cl (single isomer, unassigned) [Example 2, 2-[4-[3-(Methylamino)-1-phenylpropoxy]phenyl]ethanol hydrochloride]
p-PLCγ1 change [1]: No significant change
antidepressant activity (duration of immobility) ([2]; 30 mg/kg intraperitoneal, 60 minutes post-dosing): significant antidepressant activity
antidepressant activity (duration of immobility) ([2]; 90 mg/kg p.o.): significant activity
p-Akt levels (Akt phosphorylation) [3]: positive significant increase; also recorded: increase in Akt phosphorylation
antidepressant effect (duration of immobility) [4]: significant activity
inhibition at 10 µM [5]: 88%
visuospatial memory and learning ([6]; J20 mice): positive effect in some sessions
visuospatial memory and learning ([6]; old wild type mice): increase in visuospatial memory and learning
